# Results: PMC10279527, “Structural basis of metabolite transport by the chloroplast outer envelope channel OEP21” (Nature Structural & Molecular Biology, 2023)
# Where “and” joins values, the source holds several entries; their conditions need not be identical. Identical values can stand only once. Like-named read-outs stand apart in the source and are kept apart here.
# How the values were obtained:
# Parameters in all cases: species or system garden pea
# [1] = biological target: T1, OEP21 wt (Pisum sativum, UniProt Q9SM57); test: Fluorescence polarization (FP) binding of MANT-ATP (or MANT-GMPPNP) to OEP21-WT, also at varied NaCl and MgCl2
# T1 construct: made in house
# Experimental: FP assays were performed on a spectrofluorometer FP-8300 (Jasco) equipped with a water bath cooling system MCM-100 (Jasco). […] A buffer containing no EDTA was used when MgCl2 was present. […] KD values were derived by fitting the data to a one-site binding model. […] All FP experiments were performed as triplicates.
# [2] = biological target: T2, OEP21 variants (single point mutations, ΔL5) (Pisum sativum, UniProt Q9SM57, R140A); test: Fluorescence polarization binding of MANT-ATP to OEP21 variants; conditions: OEP21 variant R140A; for Kd: unit inferred;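 on all read-outs here: KD obtained by fitting fluorescence polarization data to a one-site binding model, each experiment run in triplicate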
# T2 construct: made in house; host or cells: Escherichia coli BL21(DE3) (described for OEP21)
# [3] = biological target: T3, OEP21 variants (single point mutations, ΔL5) (Pisum sativum, UniProt Q9SM57, R66W); test: as above; conditions: OEP21 variant R66W; for Kd: unit inferred
# T3 construct: made in house; host or cells: Escherichia coli BL21(DE3) (described for OEP21)
# [4] = individual determinations, read-out: KD1-KD3
# T2 sequence (Q9SM57 whole entry L5del/R140A): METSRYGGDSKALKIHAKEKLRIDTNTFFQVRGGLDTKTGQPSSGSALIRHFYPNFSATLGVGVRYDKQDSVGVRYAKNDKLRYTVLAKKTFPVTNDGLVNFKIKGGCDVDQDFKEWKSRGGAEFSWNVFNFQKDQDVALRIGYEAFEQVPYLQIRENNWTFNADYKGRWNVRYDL
# T1 sequence (Q9SM57 whole entry): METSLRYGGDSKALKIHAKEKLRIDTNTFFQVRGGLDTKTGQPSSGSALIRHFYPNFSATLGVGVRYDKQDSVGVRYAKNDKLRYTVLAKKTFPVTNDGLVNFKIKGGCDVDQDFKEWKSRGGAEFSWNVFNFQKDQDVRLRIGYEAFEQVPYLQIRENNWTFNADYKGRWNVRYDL
# T3 sequence (Q9SM57 whole entry L5del/R66W): as the sequence (Q9SM57 whole entry L5del/R140A) above, with R65W, A139R counted along it
substance,measurement,setting,value
2′-(or-3′)-O-(N-methylanthraniloyl) adenosine 5′-triphosphate [Mant-ATP],Kd,"[1]; MgCl2 0 mM, individual determinations, read-out: KD1-KD3",184 nM and 169 nM and 193 nM
same,Kd,"[1]; MgCl2 0 mM, read-out: mean KD",182 nM
same,rel KD1-KD3,"[1]; MgCl2 0 mM, relative to mean KD at 0 mM MgCl2",1.011 and 0.9286 and 1.06
same,Kd,"[1]; MgCl2 1 mM, individual determinations, read-out: KD1-KD3",442 nM and 659 nM and 1020 nM
same,Kd,"[1]; MgCl2 1 mM, read-out: mean KD",706 nM
same,Kd,"[1]; MgCl2 10 mM, individual determinations, read-out: KD1-KD3",1170 nM and 2680 nM and 2400 nM
same,Kd,"[1]; MgCl2 10 mM, read-out: mean KD",2080 nM
same,Kd,"[1]; MgCl2 50 mM, individual determinations, read-out: KD1-KD3",6430 nM and 8880 nM and 8630 nM
same,Kd,"[1]; MgCl2 50 mM, read-out: mean KD",7980 nM
same,rel KD1-KD3,"[1]; MgCl2 50 mM, relative to mean KD at 0 mM MgCl2",35.3077 and 48.8077 and 47.4286
same,Kd,"[1]; NaCl 0 M, individual determinations, nM printed only in the MgCl2 head (r11) of this sheet, read-out: KD1-KD3",184 nM and 169 nM and 193 nM
same,Kd,"[1]; NaCl 0 M, read-out: mean KD",182 nM
same,rel KD1-KD3,"[1]; NaCl 0 M, relative to mean KD at 0 M NaCl",1.011 and 0.9286 and 1.06
same,Kd,"[1]; NaCl 0.5 M, individual determinations, nM, read-out: KD1-KD3",241 nM and 192 nM and 264 nM
same,Kd,"[1]; NaCl 0.5 M, read-out: mean KD",232 nM
same,rel KD1-KD3,"[1]; NaCl 0.5 M, relative to mean KD at 0 M NaCl",1.324 and 1.055 and 1.451
same,Kd,"[1]; NaCl 1 M, individual determinations, nM, read-out: KD1-KD3",2600 nM and 2460 nM and 3130 nM
same,Kd,"[1]; NaCl 1 M, read-out: mean KD",2730 nM
same,rel KD1-KD3,"[1]; NaCl 1 M, relative to mean KD at 0 M NaCl",14.2912 and 13.5385 and 17.1923
same,Kd,"[1]; NaCl 2 M, individual determinations, nM, read-out: KD1-KD3",18.4 µM and 21.4 µM (2×)
same,Kd,"[1]; NaCl 2 M, read-out: mean KD",20400 nM
same,rel KD1-KD3,"[1]; NaCl 2 M, relative to mean KD at 0 M NaCl",101.319 and 117.56 and 117.418
same,Kd,"[1]; OEP21 wt, individual determinations, unit inferred, read-out: KD1-KD3",184 nM and 169 nM and 193 nM
same,rel KD1-KD3,"[1]; OEP21 wt, relative to mean KD of wt",1.011 and 0.9286 and 1.06
same,Kd,"[1]; OEP21 wt, unit inferred, read-out: mean KD",182 nM
same,Kd,[2]; [4],233 nM and 286 nM and 307 nM
same,rel KD1-KD3,[2]; relative to mean KD of wt,1.28 and 1.571 and 1.687
same,Kd,[2]; read-out: mean KD,275 nM
same,Kd,[3]; [4],275 nM and 175 nM and 227 nM
same,rel KD1-KD3,[3]; relative to mean KD of wt,1.511 and 1.247
same,Kd,[3]; read-out: mean KD,226 nM
